The source of these data is patent US20220046917A1, “ATTRACTANT BLEND COMPOSITIONS, DEVICES AND METHODS FOR ATTRACTING FEMALE MICE” (priority 2020, published 2022).

Test [1] relates to wild mice. Kind of test: Experiment 3: field experiment, captures in paired baited trap boxes. The settings on record: Exp. 3, paired trap boxes. The format is in vivo, Mus musculus. The method, then:
(§1) Each replicate (n=49) consisted of paired trap boxes as depicted in FIG. 4. The paired trap boxes, PROTECTA® Mouse, Bell Laboratories Inc. Madison, Wis.
(§2) Twice every week, paired trap boxes were checked, and food lures and pheromone lures replaced. Whenever a mouse had been captured, its sex and age (juvenile or adult based on body size and genitalia development) were recorded, and a new trap box and snap trap were deployed. […] The position of the treatment and the control trap within paired trap boxes was re-randomized after each capture.
(§3) Experiments 3 and 4 evaluated the respective abilities of the CPCs and a blend of brevicomin and thiazole to enhance the attractiveness of testosterone. […] Specifically, in Experiment 3, the treatment box in each pair was baited with brevicomin (1 mg) and thiazole (1 mg) formulated in mineral oil (10 ml) and contained in a 20-ml glass scintillation vial. […] To minimize any potential sources of error, treatment and control trap boxes in each experiment were fitted with the same glassware and volume of mineral oil.

The subject of test [2] is wild mice. Kind of test: Experiment 4: field experiment, captures in paired baited trap boxes. Format: in vivo, Mus musculus. The settings on record: Exp. 4, paired trap boxes. The method, then:
as §1, §2, §3

As for `C[C@]12CC[C@H]3[C@@H](CCC4=CC(=O)CC[C@@]43C)[C@@H]1CC[C@@H]2O` [testosterone], in the test with wild mice [1], the “adult female mice captured” value was “one”. Besides, in the test with wild mice [2], the adult females captured entry is recorded as “four”, the adult males captured result is “seven” and the juvenile male captured result is on record as “one”.
